Several values for one entry are separate records, joined by “and”; a condition that tells them apart may be missing. Identical values can stand only once. Entries after “also recorded” stand apart in the source; their conditions may differ.
Legend:
[1] = Pilot oral pharmacokinetic study in female mice, plasma Compound 1 by HPLC with fluorescence detection; assay type: in vivo; conditions: single oral gavage 31.25 mg/kg vs Compound 1 25 mg/kg
[2] = tested on: thymidine-kinase deficient Oka VZV strain in HEL cells; test: Viral plaque formation reduction in HEL cells inoculated with VZV Oka strain; assay type: cell-based, Varicella Zoster virus; conditions: for antiviral activity (in words): in vitro

SMILES | plasma concentrations of Compound 1 compared to mice receiving Compound 1 (in words) [1] | EC50 ([2]; Human alphaherpesvirus 3, HEL, read-out: EC50 in VZV OKA) | antiviral activity (in words) [2]
CCCCCc1ccc(-c2cc3cn(C4CC(O)C(COC(=O)C(N)C(C)C)O4)c(=O)nc3o2)cc1 (stereo not shown) [Compound 5] | much higher | 16 nM and 0.008 µg/mL | active; also recorded: comparable in vitro antiviral activity to Compound 1
CCCCCc1ccc(-c2cc3cn(C4CC(O)C(COC(=O)C(N)C(C)C)O4)c(=O)nc3o2)cc1.Cl (stereo not shown) [Compound 6] |  |  | active

— patent US8859512B2, “Anti-viral pyrimidine nucleoside derivatives” (University College Cardiff Consultants Limited, priority 2006, dated 2014)
